Test results taken from ChEMBL document CHEMBL4303773 (Nature, 2020).
Calls of active or inactive are those of the source. The rule behind the calls is not given here.

Legend:
[1] = (§1) Cytotoxicity of compound against Vero E6 cells by MTT assay.; conditions: chlorocebus sabaeus, Vero E6 cells
SARS-CoV-2 [2] = conditions: Chlorocebus sabaeus; Vero C1008
Vero C1008 [3] = assay: AUC (cytotoxicity %) of compound against Vero E6 cells by MTT assay.; format: toxicity, cell-based; conditions: chlorocebus sabaeus
SARS-CoV-2 [4] = assay: microbe, parasite or virus in culture; format: functional, organism-based, Chlorocebus sabaeus; conditions: Severe acute respiratory syndrome coronavirus 2, Vero C1008, 48 h
Vero C1008 [5] = assay: as §1; conditions: chlorocebus sabaeus, vero c1008
SARS-CoV-2 [6] = assay: IC90 for antiviral activity against SARS-CoV-2 in the Vero E6 cell line by measuring infectious viral titer of supernatent from compound-treated Vero E6 cells by Median Tissue Culture Infectious Dose (TCID)50 by the method of Reed and Muench; format: functional, Chlorocebus sabaeus; conditions: Severe acute respiratory syndrome coronavirus 2, Vero C1008
[7] = biological target: T1, Muscarinic acetylcholine receptor M5 (Homo sapiens, UniProt P08912); assay: Activity of compound against Muscarinic acetylcholine receptor M5 (CHRM5) by displacement of 3H-QNB
T1 sequence (P08912 whole entry): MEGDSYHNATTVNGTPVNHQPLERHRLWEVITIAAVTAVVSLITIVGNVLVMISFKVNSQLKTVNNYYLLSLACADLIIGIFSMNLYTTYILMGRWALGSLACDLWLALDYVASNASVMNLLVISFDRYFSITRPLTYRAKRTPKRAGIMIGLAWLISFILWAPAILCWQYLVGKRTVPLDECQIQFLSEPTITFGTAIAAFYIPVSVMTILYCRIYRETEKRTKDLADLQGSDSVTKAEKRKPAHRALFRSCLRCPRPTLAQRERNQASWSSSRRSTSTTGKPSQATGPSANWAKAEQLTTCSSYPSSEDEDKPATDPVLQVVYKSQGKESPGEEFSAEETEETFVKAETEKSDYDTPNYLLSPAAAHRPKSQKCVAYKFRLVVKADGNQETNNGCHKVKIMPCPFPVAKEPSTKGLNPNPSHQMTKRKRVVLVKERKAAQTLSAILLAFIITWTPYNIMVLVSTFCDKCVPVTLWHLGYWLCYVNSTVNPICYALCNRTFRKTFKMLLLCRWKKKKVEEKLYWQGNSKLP

[8] = biological target: T2, Muscarinic acetylcholine receptor M4 (Homo sapiens, UniProt P08173); assay: Activity of compound against Muscarinic acetylcholine receptor M4 (CHRM4) by displacement of 3H-QNB
T2 sequence (P08173 whole entry): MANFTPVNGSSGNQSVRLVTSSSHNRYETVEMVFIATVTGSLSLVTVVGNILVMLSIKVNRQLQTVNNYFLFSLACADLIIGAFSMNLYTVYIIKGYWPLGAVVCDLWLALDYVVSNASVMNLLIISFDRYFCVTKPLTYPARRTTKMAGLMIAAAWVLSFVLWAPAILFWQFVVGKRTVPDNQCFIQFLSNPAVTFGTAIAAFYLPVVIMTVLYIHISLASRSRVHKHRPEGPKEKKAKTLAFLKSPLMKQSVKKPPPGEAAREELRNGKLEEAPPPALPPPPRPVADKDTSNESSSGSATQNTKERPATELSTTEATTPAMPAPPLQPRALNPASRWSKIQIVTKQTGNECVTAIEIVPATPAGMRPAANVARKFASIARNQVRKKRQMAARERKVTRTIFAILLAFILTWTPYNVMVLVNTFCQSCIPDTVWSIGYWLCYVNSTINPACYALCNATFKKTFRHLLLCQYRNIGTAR

[9] = biological target: Sigma non-opioid intracellular receptor 1 (Homo sapiens, UniProt Q99720)
Chain of Sigma non-opioid intracellular receptor 1 (Q99720 whole entry): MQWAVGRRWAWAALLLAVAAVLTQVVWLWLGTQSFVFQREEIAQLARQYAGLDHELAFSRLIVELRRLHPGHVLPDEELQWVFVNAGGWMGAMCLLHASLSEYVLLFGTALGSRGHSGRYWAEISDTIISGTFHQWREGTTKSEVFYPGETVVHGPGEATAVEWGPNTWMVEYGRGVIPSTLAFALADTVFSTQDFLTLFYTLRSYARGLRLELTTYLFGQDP
Description: Displacement of [3H]-pentazocin from the Sigma1 receptor

[10] = biological target: Sigma intracellular receptor 2 (Homo sapiens, UniProt Q5BJF2); assay: Displacement of [3H]-DTG from the Sigma2 receptor
Chain of Sigma intracellular receptor 2 (Q5BJF2 whole entry): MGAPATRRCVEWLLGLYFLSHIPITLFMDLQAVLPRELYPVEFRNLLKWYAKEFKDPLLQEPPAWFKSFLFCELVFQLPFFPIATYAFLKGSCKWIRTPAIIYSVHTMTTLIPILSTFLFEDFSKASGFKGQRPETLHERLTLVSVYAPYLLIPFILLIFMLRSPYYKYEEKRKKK

SMILES | CC50 [1] | AUC (SARS-CoV-2 [2]) | AUC cytotoxicity (Vero C1008 [3]) | other results
COC(=O)C1(c2ccc(C)cc2)CC1CN1CCC(O)(c2ccccc2)CC1 (stereo not given) | ~4000 nM (inactive) |  |  | 
CC(C)n1nc(-c2ccc3oc(N)nc3c2)c2c(N)ncnc21 [SAPANISERTIB] | 1.24 nM | 329 | 102 | 
N=C(N)Nc1ccc(C(=O)Oc2ccc3cc(C(=N)N)ccc3c2)cc1 [NAFAMOSTAT] |  | 302 |  | IC50 (SARS-CoV-2 [4]): ~39800 nM (inactive)
C[C@@H]1CN(CCCn2c3ccccc3c3ccccc32)C[C@H](C)N1 [RIMCAZOLE] |  |  | 215.6 | pCC50 (Vero C1008 [5]): 2.24
CCNC(=O)c1noc(-c2cc(C(C)C)c(O)cc2O)c1-c1ccc(CN2CCOCC2)cc1 [LUMINESPIB] | ~67.6 nM | 172 | 161.6 | 
NC(=O)c1ncn([C@@H]2O[C@H](CO)[C@@H](O)[C@H]2O)n1 [RIBAVIRIN] | ~21700 nM (inactive) |  |  | 
C[C@H](CS)C(=O)N1CCC[C@H]1C(=O)O [CAPTOPRIL] | ~1230 nM (inactive) | 276 | 271.9 | 
Cc1ncsc1-c1ccc(CNC(=O)[C@@H]2C[C@@H](O)CN2C(=O)[C@@H](NC(=O)COCCOCCOCCNC(=O)C[C@@H]2N=C(c3ccc(Cl)cc3)c3c(sc(C)c3C)-n3c(C)nnc32)C(C)(C)C)cc1 | 300 nM |  |  | 
CC[C@H](C)C(=O)O[C@H]1C[C@@H](C)C=C2C=C[C@H](C)[C@H](CC[C@@H]3C[C@@H](O)CC(=O)O3)[C@H]21 [LOVASTATIN] |  |  |  | pCC50 (Vero C1008 [5]): 5.4
N#CC[C@H](C1CCCC1)n1cc(-c2ncnc3[nH]ccc23)cn1 [RUXOLITINIB] |  | 316 | 248.3 | 
CC(C)CC(=O)N[C@H](C(=O)N[C@H](C(=O)N[C@@H](CC(C)C)[C@@H](O)CC(=O)N[C@@H](C)C(=O)N[C@@H](CC(C)C)[C@@H](O)CC(=O)O)C(C)C)C(C)C [PEPSTATIN] | ~19.5 nM (inactive) | 313 | 262.3 | 
COc1cccc2c1CCCC2CCCN1CCN(C2CCCCC2)CC1 (stereo not given) |  |  |  | IC90 (SARS-CoV-2 [6]): 278 nM
COc1cc2c(c(OC)n1)[C@]1(O)[C@H](O)[C@H](CN(C)C)[C@@H](c3ccccc3)[C@]1(c1ccc(C#N)cc1)O2 [ZOTATIFIN] | 5.12 nM (active) |  |  | IC90 (SARS-CoV-2 [6]): 37 nM
Clc1ccc(C(OCCN2CCCCC2)c2ccccc2)cc1 (stereo not given) [CLOPERASTINE] | ~661 nM (active) |  |  | 
COc1ccc2c(c1)[C@]13CCCC[C@@H]1[C@H](C2)N(C)CC3 [DEXTROMETHORPHAN] | ~871 nM | 271 | 296.5 | 
CN(C)C(=N)NC(=N)N [METFORMIN] |  | 293 |  | IC50 (SARS-CoV-2 [4]): ~2860 nM
CO[C@H]1C[C@@H]2CC[C@@H](C)[C@@](O)(O2)C(=O)C(=O)N2CCCC[C@H]2C(=O)O[C@H]([C@H](C)C[C@@H]2CC[C@@H](O)[C@H](OC)C2)CC(=O)[C@H](C)/C=C(\C)[C@@H](O)[C@@H](OC)C(=O)[C@H](C)C[C@H](C)/C=C/C=C/C=C/1C [SIROLIMUS] | ~0.479 nM |  |  | 
CC(C)c1cc(C(=O)N2Cc3ccc(CN4CCN(C)CC4)cc3C2)c(O)cc1O [ONALESPIB] | ~1.66 nM | 177 | 170.7 | 
Cc1cc2c(C(N)=O)cccc2n1-c1nc2c(c(NCc3ccccc3)n1)COCC2 [CB-5083] |  | 280 |  | 
CCc1ccc(CCOc2ccc(CC3SC(=O)NC3=O)cc2)nc1 (stereo not given) [PIOGLITAZONE] | ~3630 nM (inactive) | 272 | 236.6 | 
COc1cccc2c1C(=O)c1c(O)c3c(c(O)c1C2=O)C[C@@](O)(C(C)=O)C[C@@H]3O[C@H]1C[C@H](N)[C@H](O)[C@H](C)O1 [DAUNORUBICIN] |  |  |  | IC50 (SARS-CoV-2 [4]): ~214 nM

SMILES | CC50 [1] | AUC (SARS-CoV-2 [2]) | AUC cytotoxicity (Vero C1008 [3]) | other results
CCCC(CCC)C(=O)O [VALPROIC ACID] |  | 300 | 235.1 | 
c1ccc(CNc2nc(NCc3ccccc3)c3ccccc3n2)cc1 |  |  |  | pCC50 (Vero C1008 [5]): 5.19
COc1ccc(-c2sc(NC(=O)C(C)(C)C)nc2C)cc1S(=O)(=O)Nc1ccc(O)cc1 |  |  |  | pCC50 (Vero C1008 [5]): 5.25
O=C(O)/C(Cc1ccccc1[N+](=O)[O-])=N\Nc1nc(-c2ccc(Cl)c(Cl)c2)cs1 |  |  |  | pCC50 (Vero C1008 [5]): 4.32
Cc1cc(Nc2cc(N)ncn2)c(=O)n2c1C(=O)NC21CCCCC1 [TOMIVOSERTIB] |  | 231 | 245.9 | pCC50 (Vero C1008 [5]): 5.26
NCCCC[C@H](N[C@@H](CCc1ccccc1)C(=O)O)C(=O)N1CCC[C@H]1C(=O)O [LISINOPRIL ANHYDROUS] | ~8320 nM (inactive) |  |  | 
CN(C)C(=O)COC(=O)Cc1ccc(OC(=O)c2ccc(NC(=N)N)cc2)cc1 [CAMOSTAT] | ~3630 nM (inactive) | 251 | 276.3 | 
COc1cccc2c(NCc3ccccc3)nc(-n3c(N)nc4ccccc43)nc12 |  | 223 | 175.5 | pCC50 (Vero C1008 [5]): 2.936
O=c1[nH]c2ccccc2n1C1CCN(CCCC(c2ccc(F)cc2)c2ccc(F)cc2)CC1 [PIMOZIDE] |  |  |  | pCC50 (Vero C1008 [5]): 6.13
O=C(O)c1ccc2c(c1)nc(Nc1cccc(Cl)c1)c1ccncc12 [SILMITASERTIB] |  | 216 | 225.5 | pCC50 (Vero C1008 [5]): 5.5
COc1cc(OC)c2c(=O)[nH]c(-c3cc(C)c(OCCO)c(C)c3)nc2c1 [APABETALONE] | ~207 nM (inactive) | 293 | 281.9 | 
Cc1cc2c(s1)Nc1ccccc1N=C2N1CCN(C)CC1 [OLANZAPINE] | ~2880 nM (inactive) |  |  | 
Cc1cc(OCCN2CCOCC2)nn1-c1ccc2ccccc2c1 | ~7620 nM (inactive) |  |  | 
Cc1sc2c(c1C)C(c1ccc(Cl)cc1)=N[C@@H](CC(=O)OC(C)(C)C)c1nnc(C)n1-2 | ~66.8 nM |  |  | 
O=C(c1ccc(-n2nnc3cccnc32)cc1)N(c1ncccc1Cl)[C@@H]1CCCNC1 |  |  |  | IC50 (SARS-CoV-2 [4]): 7590 nM; pCC50 (Vero C1008 [5]): 5.61
CCN(CC)CCCC(C)Nc1ccnc2cc(Cl)ccc12 (stereo not given) [CHLOROQUINE] |  |  |  | Ki [7]: 21900 nM; Ki [8]: 5750 nM; Ki [9]: 79.4 nM; Ki [10]: 501 nM
CC(=O)Oc1ccccc1C(=O)Nc1ncc([N+](=O)[O-])s1 [NITAZOXANIDE] |  |  |  | IC50 (SARS-CoV-2 [4]): 2820 nM
Cc1noc2c1-c1ccccc1C(c1ccc(Cl)cc1)=N[C@H]2CC(N)=O [PELABRESIB] | ~42.7 nM (inactive) | 249 | 193.2 | 
C[C@@H](C1CCCCC1)n1c(-c2cc3c(cc2Br)OCO3)nc2cc(C(=O)Nc3ccc(C#N)cc3)ccc21 | ~102 nM (inactive) | 227 | 261.6 | 
O=c1[nH]c(=O)n([C@H]2C[C@H](O)[C@@H](CO)O2)cc1/C=C/Br [BRIVUDINE] |  | 255 | 244.3 | 
